Assay results from ChEMBL document CHEMBL1138057, “Synthesis and structure-activity relationships of N-{3-[2-(4-alkoxyphenoxy)thiazol-5-yl]-1- methylprop-2-ynyl}carboxy derivatives as selective acetyl-CoA carboxylase 2 inhibitors” (J Med Chem, 2006).
Active and inactive are the calls of the source. The calls are words filed in the database; no cut-off is given here.

What was measured:
Acetyl-CoA carboxylase 2 = Acetyl-CoA carboxylase 2 (Homo sapiens, UniProt O00763); test: Inhibition of human recombinant ACC2 expressed in baculovirus/sf9 system
Acetyl-CoA carboxylase 1 = Acetyl-CoA carboxylase 1 (Homo sapiens, UniProt Q13085); test: Inhibition of human recombinant ACC1 expressed in HEK293 cells; type: cell-based
Rattus norvegicus [1] = test: Reduction of mCoA level in Sprague-Dawley rat muscle at 50 mg/kg, po; type: functional
Rattus norvegicus [2] = test: Reduction of mCoA level in Sprague-Dawley rat muscle at 10 mg/kg, po; type: functional
Rattus norvegicus [3] = test: Drug concentration in Sprague-Dawley rat plasma at 50 mg/kg; type: ADME, organism-based; design: dose 50 mg/kg; details: in vivo
Rattus norvegicus [4] = test: Reduction of mCoA level in Sprague-Dawley rat liver at 50 mg/kg, po; type: functional
Rattus norvegicus [5] = test: Reduction of mCoA level in Sprague-Dawley rat liver at 10 mg/kg, po; type: functional, organism-based; design: dose 10 mg/kg
Rattus norvegicus [6] = test: Drug concentration in Sprague-Dawley rat plasma at 10 mg/kg; type: ADME, organism-based; design: dose 10 mg/kg; details: in vivo
[7] = AUC in rat at 5 mg/kg, po; type: ADME, organism-based; design: dose 5 mg/kg, route oral; details: plasma
[8] = Half life in rat at 5 mg/kg, po; type: ADME, organism-based; design: dose 5 mg/kg, route oral; details: in vivo
[9] = Volume of distribution in rat at 5 mg/kg; type: ADME, organism-based; design: dose 5 mg/kg; details: in vivo, read-out: Vss
[10] = Tmax in rat at 5 mg/kg; type: ADME, organism-based; design: dose 5 mg/kg; details: in vivo
[11] = Cmax in rat at 5 mg/kg; type: ADME, organism-based; design: dose 5 mg/kg; details: in vivo
[12] = Plasma clearance in rat at 5 mg/kg; type: ADME, organism-based; design: dose 5 mg/kg
[13] = Bioavailability in rat at 5 mg/kg; type: ADME, organism-based; details: in vivo

Sequence of Acetyl-CoA carboxylase 2 (O00763 whole entry): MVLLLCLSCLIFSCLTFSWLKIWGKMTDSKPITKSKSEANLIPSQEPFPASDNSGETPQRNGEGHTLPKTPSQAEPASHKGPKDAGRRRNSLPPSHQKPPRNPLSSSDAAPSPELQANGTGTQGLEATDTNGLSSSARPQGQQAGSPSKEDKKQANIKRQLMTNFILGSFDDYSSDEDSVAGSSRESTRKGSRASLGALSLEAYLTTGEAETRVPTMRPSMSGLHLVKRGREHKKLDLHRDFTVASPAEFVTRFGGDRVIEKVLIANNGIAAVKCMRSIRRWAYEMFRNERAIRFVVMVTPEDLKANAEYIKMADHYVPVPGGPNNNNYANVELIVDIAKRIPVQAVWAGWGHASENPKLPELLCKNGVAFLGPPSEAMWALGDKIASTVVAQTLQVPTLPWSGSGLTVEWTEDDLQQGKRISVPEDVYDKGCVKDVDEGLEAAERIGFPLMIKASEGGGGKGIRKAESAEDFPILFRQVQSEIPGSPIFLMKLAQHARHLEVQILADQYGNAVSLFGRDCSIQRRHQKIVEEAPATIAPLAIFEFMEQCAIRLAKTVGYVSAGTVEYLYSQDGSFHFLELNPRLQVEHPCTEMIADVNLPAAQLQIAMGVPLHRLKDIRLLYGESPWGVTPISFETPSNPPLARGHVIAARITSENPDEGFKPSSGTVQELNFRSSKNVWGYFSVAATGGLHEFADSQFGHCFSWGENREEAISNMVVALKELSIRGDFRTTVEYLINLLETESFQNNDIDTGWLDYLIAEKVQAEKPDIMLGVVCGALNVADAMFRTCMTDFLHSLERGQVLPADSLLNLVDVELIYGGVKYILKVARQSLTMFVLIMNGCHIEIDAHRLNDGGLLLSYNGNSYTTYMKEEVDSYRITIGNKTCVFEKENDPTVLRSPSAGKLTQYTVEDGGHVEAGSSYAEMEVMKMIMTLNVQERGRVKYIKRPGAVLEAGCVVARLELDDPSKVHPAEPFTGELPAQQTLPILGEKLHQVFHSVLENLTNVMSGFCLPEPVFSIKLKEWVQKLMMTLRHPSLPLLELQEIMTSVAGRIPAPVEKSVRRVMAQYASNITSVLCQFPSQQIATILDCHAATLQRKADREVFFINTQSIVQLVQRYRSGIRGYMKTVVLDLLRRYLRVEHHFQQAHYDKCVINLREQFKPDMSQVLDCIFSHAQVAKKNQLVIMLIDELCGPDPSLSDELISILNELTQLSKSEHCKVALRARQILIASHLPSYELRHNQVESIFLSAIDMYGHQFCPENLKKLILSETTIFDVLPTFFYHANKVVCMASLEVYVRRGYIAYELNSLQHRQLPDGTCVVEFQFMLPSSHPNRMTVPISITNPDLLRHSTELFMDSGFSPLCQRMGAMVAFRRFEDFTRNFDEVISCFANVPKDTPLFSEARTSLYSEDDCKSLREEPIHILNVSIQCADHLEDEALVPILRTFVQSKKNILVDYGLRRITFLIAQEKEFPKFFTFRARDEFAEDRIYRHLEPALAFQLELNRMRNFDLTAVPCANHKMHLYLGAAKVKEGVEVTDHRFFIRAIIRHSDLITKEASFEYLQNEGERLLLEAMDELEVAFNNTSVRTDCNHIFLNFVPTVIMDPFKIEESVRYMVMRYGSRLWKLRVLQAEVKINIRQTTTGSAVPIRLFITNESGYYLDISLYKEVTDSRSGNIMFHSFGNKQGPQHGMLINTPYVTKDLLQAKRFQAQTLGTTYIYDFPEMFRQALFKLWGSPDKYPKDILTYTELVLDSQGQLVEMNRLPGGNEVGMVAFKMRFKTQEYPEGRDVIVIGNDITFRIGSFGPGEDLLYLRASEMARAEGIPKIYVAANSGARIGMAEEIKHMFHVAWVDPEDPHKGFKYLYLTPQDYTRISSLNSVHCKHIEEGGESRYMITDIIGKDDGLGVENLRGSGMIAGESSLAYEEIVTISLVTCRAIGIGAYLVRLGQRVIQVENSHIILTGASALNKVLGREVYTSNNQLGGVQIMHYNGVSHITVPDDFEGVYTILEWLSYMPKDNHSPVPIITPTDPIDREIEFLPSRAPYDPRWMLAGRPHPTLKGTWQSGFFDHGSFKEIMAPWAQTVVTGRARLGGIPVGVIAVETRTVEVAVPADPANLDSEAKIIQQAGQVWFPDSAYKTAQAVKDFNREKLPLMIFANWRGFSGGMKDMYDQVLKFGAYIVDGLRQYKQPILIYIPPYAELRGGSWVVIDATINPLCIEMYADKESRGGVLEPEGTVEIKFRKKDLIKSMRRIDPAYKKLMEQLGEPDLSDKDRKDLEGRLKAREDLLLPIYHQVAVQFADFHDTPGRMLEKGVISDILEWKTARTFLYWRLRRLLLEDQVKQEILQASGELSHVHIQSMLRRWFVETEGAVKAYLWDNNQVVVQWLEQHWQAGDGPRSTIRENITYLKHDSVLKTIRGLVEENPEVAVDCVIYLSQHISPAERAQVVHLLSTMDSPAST

Structure (SMILES) | IC50 (Acetyl-CoA carboxylase 2) [µM] | IC50 (Acetyl-CoA carboxylase 1) [µM] | also measured
CC(O)C#Cc1cnc(Oc2ccc(Oc3ccccc3)cc2)s1 (stereo not drawn) | 0.6 | > 30 | 
CC(=O)NC(C)C#Cc1cnc(Oc2ccc(SC(C)C)cc2)s1 (stereo not drawn) | 0.055 | 0.37 | 
CC(N)C#Cc1cnc(Oc2ccc(Oc3ccccc3)cc2)s1 (stereo not drawn) | 2.42 | > 30 | 
CC(=O)NC(C)C#Cc1cnc(Oc2ccc(C(C)C)cc2)s1 (stereo not drawn) | > 30 | 1.25 | 
CC(=O)NC(C)C#Cc1cnc(Sc2ccc(OC(C)C)cc2)s1 (stereo not drawn) | 0.069 | > 30 | 
CC(=O)NC(C)C#Cc1csc(Oc2ccc(OC(C)C)cc2)n1 (stereo not drawn) | > 30 | > 30 | 
CC(C#Cc1cnc(Oc2ccc(Oc3ccccc3)cc2)s1)N(O)C(N)=O (stereo not drawn) | 0.08 | 1 | 
CC(=O)NC(C)C#Cc1cnc(Oc2ccc(OC(C)C)nc2)s1 (stereo not drawn) | 0.015 | 0.39 | 
CC(=O)NC(C)C#Cc1ccc(Oc2ccc(OC(C)C)cc2)cc1 (stereo not drawn) | 0.006 | 0.029 | 
CC(=O)NCC#Cc1cnc(Oc2ccc(OC(C)C)cc2)s1 | 1.73 | > 30 | 
CC(=O)NC(C)C#Cc1cnc(Oc2ccc(OC(C)C)cc2)s1 (stereo not drawn) | 0.019 | > 30 | 
CNC(=O)NC(C)C#Cc1cnc(Oc2ccc(OC(C)C)cc2)s1 (stereo not drawn) | 0.03 | > 30 | 
CC(=O)NC(C)C#Cc1cnc(Oc2ccc(NC(C)C)cc2)s1 (stereo not drawn) | 0.15 | > 30 | 
O=C(c1c2ccccc2cc2ccccc12)N1CCC(N2CCC[C@@H](C(=O)N3CCOCC3)C2)CC1 | 0.038 | 0.41 | 
CC(=O)NC(C#Cc1cnc(Oc2ccc(OC(C)C)cc2)s1)C1CC1 (stereo not drawn) | 0.84 | > 30 | 
COC(=O)N[C@H](C)C#Cc1cnc(Oc2ccc(OC(C)C)cc2)s1 | 1.51 | > 30 | Activity (Rattus norvegicus [1]; Muscle tissue): inactive; Activity (Rattus norvegicus [2]; Muscle tissue): inactive; Cp (Rattus norvegicus [3]): 5330 ng/mL; Activity (Rattus norvegicus [4]): inactive; Activity (Rattus norvegicus [5]): inactive; Cp (Rattus norvegicus [6]): 1330 ng/mL
CC(=O)NC(C)C#Cc1cnc(Oc2ccc(Oc3ccccc3)cc2)s1 (stereo not drawn) | 0.011 | 0.26 | 
COC(=O)N[C@@H](C)C#Cc1cnc(Oc2ccc(OC(C)C)cc2)s1 | 0.038 | > 30 | Activity (Rattus norvegicus [1]): 54%; Activity (Rattus norvegicus [2]): 36%; Cp (Rattus norvegicus [3]): 4900 ng/mL; Activity (Rattus norvegicus [4]): 26%; Cp (Rattus norvegicus [6]): 1540 ng/mL
CC(C#Cc1cnc(Oc2ccc(Oc3ccccc3)cc2)s1)NC(N)=O (stereo not drawn) | 0.026 | > 30 | 
COC(=O)NC(C)C#Cc1cnc(Oc2ccc(OC(C)C)cc2)s1 (stereo not drawn) | 0.096 | > 30 | AUC [7]: 18900 ng·h/mL; half-life [8]: > 12 h; Vd [9]: 5 L/kg; Tmax [10]: 2 h; Cmax [11]: 900 ng/mL; clearance [12]: 3.33 mL/min/kg; bioavailability [13]: 80.4%
